IC50 data for 1 compound are collected here from PMC8526855, “Gambogenic Acid Induces Endoplasmic Reticulum Stress in Colorectal Cancer via the Aurora A Pathway” (Frontiers in Cell and Developmental Biology, 2021).

This experiment addresses T1, Aurora A (Homo sapiens, UniProt O14965).
T1 construct: gene AURKA
T1 sequence (O14965 1-403): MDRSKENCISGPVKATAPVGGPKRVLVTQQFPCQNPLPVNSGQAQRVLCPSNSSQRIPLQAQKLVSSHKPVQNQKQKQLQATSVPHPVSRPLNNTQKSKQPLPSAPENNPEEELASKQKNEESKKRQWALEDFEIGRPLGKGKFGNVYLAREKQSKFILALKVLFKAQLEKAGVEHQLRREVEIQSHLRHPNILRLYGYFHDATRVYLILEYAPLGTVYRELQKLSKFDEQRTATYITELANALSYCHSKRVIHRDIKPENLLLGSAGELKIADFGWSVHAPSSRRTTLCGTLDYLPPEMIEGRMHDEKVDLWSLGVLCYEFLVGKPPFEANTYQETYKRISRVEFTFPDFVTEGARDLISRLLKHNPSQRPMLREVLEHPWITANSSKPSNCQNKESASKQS
As to the kind of experiment: microfluidic mobility shift kinase assay; also cellular thermal shift assay (Aurora A levels reduced with GNA at […]°C). It counts as biochemical.

As for `CC(C)=CCC/C(C)=C/Cc1c(O)c(CC=C(C)C)c2c(c1O)C(=O)C1=C[C@@H]3C[C@H]4C(C)(C)O[C@@](C/C=C(/C)C(=O)O)(C3=O)[C@@]14O2` [GNA, gambogenic acid], the IC50 worked out at 1420 nM.

As a reminder, the IC50 is the concentration that inhibits the measured activity by half.
